Key:
[1] = target: purified human autoBACE-2 (Homo sapiens (Human), UniProt Q9Y5Z0); assay: BACE-2 Assay (BACE-HTRF assay); assay type: biochemical; conditions: Ki calculated from IC50 using the Cheng-Prusoff equation; read-out: BACE2 Ki
Experimental: Inhibitor IC50s at purified human autoBACE-2 are determined in a time-resolved endpoint proteolysis assay that measures hydrolysis of the QSY7-[…]-Eu-amide FRET peptide substrate (BACE-HTRF assay). BACE-mediated hydrolysis of this peptide results in an increase in relative fluorescence (RFU) at 620 nm after excitation with 320 nm light Inhibitor compounds, prepared at 3× the desired final concentration in 1×BACE assay buffer (20 mM sodium acetate pH 5.0, 10% glycerol, 0.1% Brij-35) supplemented with 7.5% DMSO are pre-incubated with an equal volume of autoBACE-2 enzyme diluted in 1×BACE assay buffer (final enzyme concentration 1 nM) in black 384-well NUNC plates for 30 minutes at 30° C. […] DMSO is present at 5% final concentration in the assay. Following laser excitation of sample wells at 320 nm, the fluorescence signal at 620 nm is collected for 400 ms following a 50 μs delay on a RUBYstar HTRF plate reader (BMG Labtechnologies). Raw RFU data is normalized to maximum (1.0 nM BACE/DMSO) and minimum (no enzyme/DMSO) RFU values. IC50s are determined by nonlinear regression analysis (sigmoidal dose response, variable slope) of percent inhibition data with minimum and maximum values set to 0 and 100 percent respectively. Similar IC50s are obtained when using raw RFU data. The Ki values are calculated from the IC50 using the Cheng-Prusoff equation.

[2] = target: soluble human BACE1 catalytic domain (Homo sapiens (Human), UniProt P56817); assay: BACE1 HTRF FRET Assay; assay type: biochemical; conditions: Ki calculated from IC50 using the Cheng-Prusoff equation
Sequence of soluble human BACE1 catalytic domain (P56817 75-416): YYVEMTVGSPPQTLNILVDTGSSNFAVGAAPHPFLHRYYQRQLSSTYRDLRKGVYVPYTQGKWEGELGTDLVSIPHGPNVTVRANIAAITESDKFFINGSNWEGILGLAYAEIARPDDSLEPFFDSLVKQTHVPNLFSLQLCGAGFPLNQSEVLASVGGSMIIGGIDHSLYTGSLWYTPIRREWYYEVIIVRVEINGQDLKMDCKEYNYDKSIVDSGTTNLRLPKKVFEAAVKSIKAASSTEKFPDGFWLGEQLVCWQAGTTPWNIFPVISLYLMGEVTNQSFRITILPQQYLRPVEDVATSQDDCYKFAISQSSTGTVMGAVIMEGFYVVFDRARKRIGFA
From the text: A homogeneous time-resolved FRET assay can be used to determine IC50 values for inhibitors of the soluble human BACE1 catalytic domain. This assay monitors the increase of 620 nm fluorescence that resulted from BACE1 cleavage of an APPswedish APP^swe mutant peptide FRET substrate (QSY7-[…]-Europium-amide). This substrate contains an N-terminal QSY7 moiety that serves as a quencher of the C-terminal Europium fluorophore (620 nm Em). In the absence of enzyme activity, 620 nm fluorescence is low in the assay and increased linearly over 3 hours in the presence of uninhibited BACE1 enzyme Inhibition of BACE1 cleavage of the QSY7-APP^swe-Eu substrate by inhibitors is manifested as a suppression of 620 nm fluorescence.
Reactions are initiated by addition of 10 μl of 600 nM QSY7-APP^swe-Eu substrate (200 nM final) to give a final reaction volume of 30 μl in a 384 well Nunc HTRF plate. The reactions are incubated at 30° C. for 1.5 hours. The 620 nm fluorescence is then read on a Rubystar HTRF plate reader (BMG Labtechnologies) using a 50 millisecond delay followed by a 400 millisecond acquisition time window Inhibitor IC50 values are derived from non-linear regression analysis of concentration response curves.

Sequence of purified human autoBACE-2 (Q9Y5Z0 63-473 limits assumed): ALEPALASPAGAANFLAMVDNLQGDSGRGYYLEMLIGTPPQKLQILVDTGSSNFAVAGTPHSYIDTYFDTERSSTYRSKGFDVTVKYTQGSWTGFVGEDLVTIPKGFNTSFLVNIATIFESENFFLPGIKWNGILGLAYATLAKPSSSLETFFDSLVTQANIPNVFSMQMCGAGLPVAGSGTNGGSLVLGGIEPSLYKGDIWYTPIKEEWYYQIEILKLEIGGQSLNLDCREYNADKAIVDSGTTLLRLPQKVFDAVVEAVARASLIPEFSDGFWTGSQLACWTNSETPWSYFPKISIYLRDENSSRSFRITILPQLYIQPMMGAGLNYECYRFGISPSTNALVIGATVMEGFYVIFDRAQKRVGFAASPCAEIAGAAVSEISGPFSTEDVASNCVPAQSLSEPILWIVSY

Row | Compound | Ki [1] [nM] | Ki [2] [nM]
1 | CN1C(=N)N[C@](C)(c2sc(-c3ccc(-c4ccccc4)[nH]3)cc2Cl)CS1(=O)=O [Example 1] | 0.69 | 2.1
2 | CN1C(=N)N[C@](C)(c2sc(-c3ccc(C4=NCCO4)[nH]3)cc2Cl)CS1(=O)=O [Example 6] | 69 | 270
3 | CN1C(=N)N[C@](C)(c2sc(-c3nnc(-c4cc5ccccn5n4)o3)cc2Cl)CS1(=O)=O [Example 30] | 96.8 | 260
4 | Cc1nnc(-c2ccc(-c3cc(Cl)c([C@]4(C)CS(=O)(=O)N(C)C(=N)N4)s3)[nH]2)o1 [Example 9] | 8.24 | 8.1
5 | CN1C(=N)N[C@](C)(c2sc(-c3nnc(-c4cncs4)o3)cc2Cl)CS1(=O)=O [Example 33] | 347 | 863
6 | CN1C(=N)N[C@](C)(c2sc(-c3nnc(C4CC4)o3)cc2Cl)CS1(=O)=O [Example 48] | 116 | 882
7 | CN1C(=N)N[C@](C)(c2cc(-c3nnc(-c4ccc(Cl)cc4)o3)ccc2F)CS1(=O)=O [Example 25] | 595 | 2590
8 | CN1C(=N)N[C@](C)(c2sc(-c3ccc(-c4nnco4)[nH]3)cc2Cl)CS1(=O)=O [Example 8] | 10.9 | 2.8
9 | CN1C(=N)N[C@](C)(c2sc(-c3nnc(-c4ccc(-c5ccon5)cc4)o3)cc2Cl)CS1(=O)=O [Example 76] | 243 | 108
10 | CN1C(=N)N[C@](C)(c2sc(-c3nnc(-c4ncccn4)o3)cc2Cl)CS1(=O)=O [Example 36] | 104 | 778
11 | CN1C(=N)N[C@](C)(c2cc(-c3nnc(-c4cscn4)o3)ccc2F)CS1(=O)=O [Example 51] | 1540 | 8600
12 | CN1C(=N)N[C@](C)(c2sc(-c3nnc(-c4ccc(C#N)cc4)o3)cc2Cl)CS1(=O)=O [Example 23] | 44.9 | 34.6
13 | CCCCOc1ccc(-c2nnc(-c3cc(Cl)c([C@]4(C)CS(=O)(=O)N(C)C(=N)N4)s3)o2)cc1 [Example 61] | 258 | 100
14 | CN1C(=N)N[C@](C)(c2sc(-c3nnc(-c4ccc(C(F)(F)F)c(F)c4)o3)cc2Cl)CS1(=O)=O [Example 65] | 366 | 156
15 | CN1C(=N)N[C@](C)(c2sc(-c3nnc(-c4ccc(C5(C#N)COC5)cc4)o3)cc2Cl)CS1(=O)=O [Example 66] | 1070 | 1360
16 | CN1C(=N)N[C@](C)(c2cc(-c3cc(-c4ccccc4)on3)ccc2F)CS1(=O)=O [Example 15] | 52.6 | 326
17 | CN1C(=N)N[C@](C)(c2sc(-c3nnc(-c4ccc5[nH]cnc5c4)o3)cc2Cl)CS1(=O)=O [Example 58] | 1300 | 964
18 | CN1C(=N)N[C@](C)(c2cc(-c3nnc(-c4ccccc4)o3)ccc2F)CS1(=O)=O [Example 24] | 1490 | 9870
19 | CN1C(=N)N[C@](C)(c2sc(-c3nnc(-c4cccc5ccnn45)o3)cc2Cl)CS1(=O)=O [Example 34] | 217 | 561
20 | CN1C(=N)N[C@](C)(c2sc3c(-c4cnn(-c5ccccc5)c4)cccc3c2F)CS1(=O)=O [Example 81] | 337 | 1460
21 | CN1C(=N)N[C@](C)(c2sc(-c3ncc(-c4ccccc4)[nH]3)cc2Cl)CS1(=O)=O [Example 2] | 14.8 | 112
22 | CC1CN=C(c2ccc(-c3cc(Cl)c([C@]4(C)CS(=O)(=O)N(C)C(=N)N4)s3)[nH]2)O1 (some centres unmarked) [Example 7] | 35 | 87
23 | CN1C(=N)N[C@](C)(c2sc(-c3nnc(-c4ccncn4)o3)cc2Cl)CS1(=O)=O [Example 43] | 305 | 822
24 | Cc1nc2cc(-c3nnc(-c4cc(Cl)c([C@]5(C)CS(=O)(=O)N(C)C(=N)N5)s4)o3)ccc2s1 [Example 72] | 1150 | 422
25 | CN1C(=N)N[C@](C)(c2cc(-c3nnc(-c4nccs4)o3)ccc2F)CS1(=O)=O [Example 49] | 490 | 4000
26 | CN1C(=N)N[C@](C)(c2sc(-c3nnc(-c4cccc(C#N)c4)o3)cc2Cl)CS1(=O)=O [Example 31] | 1240 | 1210

Row | Compound | Ki [1] [nM] | Ki [2] [nM]
27 | CN1C(=N)N[C@](C)(c2cc(-c3ccc(-c4nnco4)[nH]3)ccc2F)CS1(=O)=O [Example 11] | 172 | 45
28 | CN1C(=N)N[C@](C)(c2sc(-c3nnc(-c4ccc(OC(F)(F)F)cc4)o3)cc2Cl)CS1(=O)=O [Example 78] | 143 | 56
29 | CN1C(=N)N[C@](C)(c2sc(-c3nnc(-c4ccnn4C)o3)cc2Cl)CS1(=O)=O [Example 47] | 712 | 1520
30 | CN1C(=N)N[C@](C)(c2sc(-c3cnn(-c4ccccc4)c3)cc2Cl)CS1(=O)=O [Example 85] | 27.9 | 265
31 | CN1C(=N)N[C@](C)(c2sc(-c3nnc(-c4ccc(-n5cccn5)cc4)o3)cc2Cl)CS1(=O)=O [Example 71] | 181 | 155
32 | CN1C(=N)N[C@](C)(c2sc(-c3nnc(-c4nccs4)o3)cc2Cl)CS1(=O)=O [Example 32] | 44.3 | 402
33 | CN1C(=N)N[C@](C)(c2cc(-c3nnc(-c4cocn4)o3)ccc2F)CS1(=O)=O [Example 54] | 1690 | 7550
34 | CN1C(=N)N[C@](C)(c2sc(-c3nnc(-c4ccc(OCc5ccccc5)cc4)o3)cc2Cl)CS1(=O)=O [Example 63] | 527 | 227
35 | CN1C(=N)N[C@](C)(c2sc(-c3nnc(-c4ccc(F)c(F)c4)o3)cc2Cl)CS1(=O)=O [Example 59] | 81.3 | 118
36 | CN1C(=N)N[C@](C)(c2sc(-c3cn(-c4ccccc4)nn3)cc2Cl)CS1(=O)=O [Example 5] | 281 | 1980
37 | CN1C(=N)N[C@](C)(c2sc(-c3cc(-c4ccccc4)no3)cc2Cl)CS1(=O)=O [Example 14] | 144 | 943
38 | CN1C(=N)N[C@](C)(c2sc(-c3nnc(-c4ccncc4)o3)cc2Cl)CS1(=O)=O [Example 28] | 332 | 558
39 | CN1C(=N)N[C@](C)(c2sc(-c3nnc(-c4ccc(N5CCCCC5)cc4)o3)cc2Cl)CS1(=O)=O [Example 68] | 2990 | 5360
40 | CN1C(=N)N[C@](C)(c2sc(-c3nnc(-c4ccon4)o3)cc2Cl)CS1(=O)=O [Example 44] | 156 | 1340
41 | CN1C(=N)N[C@](C)(c2sc(-c3nnc(-c4ncco4)o3)cc2Cl)CS1(=O)=O [Example 41] | 31.7 | 441
42 | CN1C(=N)N[C@](C)(c2sc(-c3nnc(-c4ccn(C)n4)o3)cc2Cl)CS1(=O)=O [Example 46] | 130 | 1140
43 | CN1C(=N)N[C@](C)(c2sc(-c3nnc(-c4cncnc4)o3)cc2Cl)CS1(=O)=O [Example 39] | 1660 | 5400
44 | COC(=O)Cc1ccc(-c2nnc(-c3cc(Cl)c([C@]4(C)CS(=O)(=O)N(C)C(=N)N4)s3)o2)cc1 [Example 80] | 671 | 138
45 | CN1C(=N)N[C@](C)(c2sc(-c3nnc(-c4ccc(OC(F)F)cc4)o3)cc2Cl)CS1(=O)=O [Example 79] | 132 | 51.6
46 | CN1C(=N)N[C@](C)(c2sc(-c3nnc(-c4ccc(C(F)(F)F)cn4)o3)cc2Cl)CS1(=O)=O [Example 75] | 303 | 164
47 | CC(C)c1ccc(-c2nnc(-c3cc(Cl)c([C@]4(C)CS(=O)(=O)N(C)C(=N)N4)s3)o2)cc1 [Example 56] | 889 | 359
48 | CN1C(=N)N[C@](C)(c2cc(-c3cc(-c4ccccc4)on3)ccc2F)CS1(=O)=O [Example 13] | 207 | 910
49 | CN1C(=N)N[C@](C)(c2sc(-c3[nH]cnc3-c3ccccc3)cc2Cl)CS1(=O)=O [Example 4] | 3120 | 9030
50 | CN1C(=N)N[C@](C)(c2sc(-c3nnc(-c4ccc(-c5noc(C(F)(F)F)n5)cc4)o3)cc2Cl)CS1(=O)=O [Example 77] | 1280 | 258
51 | CC(C)Oc1ccc(-c2nnc(-c3cc(Cl)c([C@]4(C)CS(=O)(=O)N(C)C(=N)N4)s3)o2)cc1 [Example 60] | 533 | 205
52 | CN1C(=N)N[C@](C)(c2sc(-c3nnc(-c4ccc(Cl)cc4F)o3)cc2Cl)CS1(=O)=O [Example 57] | 16.8 | 50.7

Reference: US9422277B2, “Tricyclic substituted thiadiazine dioxide compounds as BACE inhibitors, compositions and their use” (Merck Sharp & Dohme Corp., priority 2012, dated 2016)
